Among the data in patent publication US20090069300A1, “ISOQUINOLINYL AND ISOINDOLINYL DERIVATIVES AS HISTAMINE-3 ANTAGONISTS” (Wyeth, priority 2007, published 2009) are melting point and Ki values, retold here.

Data set [1] addresses T1, Human Histamine H3 Receptor (Homo sapiens, UniProt Q9Y5N1).
T1 construct: expressed in transfected cells; host or cells: HEK293T (stably transfected; membranes prepared from the cells)
Kind of data set: Methyl histamine binding in human histamine H3 receptor cell line. To be noted: read-out: H3 Binding Ki. The method, boiled down: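 Radioligand binding on membranes (10 μg/well) from a human H3 receptor cell line, 1 nM radioligand, 1 h at 30° C. in 50 mM Tris pH 7.5. Nonspecific binding defined with 10 uM clobenpropit, followed by filtration and scintillation counting. IC50 from four-parameter fit, converted to Ki by Cheng-Prusoff.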

Each structure is given as a SMILES string. Structures can show the parent of a compound that is named as a salt.

T1 sequence (Q9Y5N1 whole entry): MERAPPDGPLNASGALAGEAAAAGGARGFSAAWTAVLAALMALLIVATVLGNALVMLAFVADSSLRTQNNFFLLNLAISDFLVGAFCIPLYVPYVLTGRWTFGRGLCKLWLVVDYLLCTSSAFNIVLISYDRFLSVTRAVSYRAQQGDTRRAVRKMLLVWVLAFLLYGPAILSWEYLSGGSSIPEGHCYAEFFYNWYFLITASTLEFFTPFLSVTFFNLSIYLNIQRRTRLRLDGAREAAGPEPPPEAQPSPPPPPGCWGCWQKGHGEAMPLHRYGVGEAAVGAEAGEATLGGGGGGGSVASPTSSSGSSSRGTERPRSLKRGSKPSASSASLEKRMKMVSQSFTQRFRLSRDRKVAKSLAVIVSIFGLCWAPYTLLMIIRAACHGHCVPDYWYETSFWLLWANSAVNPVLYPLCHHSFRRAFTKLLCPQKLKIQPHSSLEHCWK

Turning to `O=C(c1ccc(-c2ccc3c(c2)CCN(CCN2CCCC2)C3)cc1)N1CCCCC1` (as salt: hydrochloride) [Example 185, 6-[4-(piperidin-1-ylcarbonyl)phenyl]-2-(2-pyrrolidin-1-ylethyl)-1,2,3,4-tetrahydroisoquinoline], the melting point (commonly the temperature of the solid-liquid transition) lay within 270 to 272 °C.

Turning to `O=C(c1ccc(-c2ccc3c(c2)CCN(CCN2CCCC2)C3)cc1)N1CCOCC1` (as salt: hydrochloride) [Example 186, 6-[4-(morpholin-4-ylcarbonyl)phenyl]-2-(2-pyrrolidin-1-ylethyl)-1,2,3,4-tetrahydroisoquinoline], the melting point lay in the range of 260 to 261 °C.

`O=C1c2ccc(-n3ncc4ccccc43)cc2CCN1CCN1CCCC1` [Example 36, 6-(1H-indazol-1-yl)-2-(2-(pyrrolidin-1-yl)ethyl)-3,4-dihydroiso-quinolin-1(2H)-one hydrochlroride] registered a melting point of 185 to 186 °C. In addition, the Ki (usually the equilibrium dissociation constant of an inhibitor or competing ligand from its target) in data set [1] was less than 10 nM. In turn, `O=C(NC1CCCC1)c1ccc(-c2ccc3c(c2)CCN(CCN2CCCC2)C3=O)cc1` [Example 55, N-cyclopentyl-4-[1-oxo-2-(2-pyrrolidin-1-ylethyl)-1,2,3,4-tetrahydroisoquinolin-6-yl]benzamide] had a melting point of 258 to 260 °C. The Ki in data set [1] is less than 10 nM.

For `CNC(=O)c1ccc(Oc2ccc3c(c2)CCN(CCN2CCCC2)C3=O)cc1` [Example 92, N-methyl-4-{[1-oxo-2-(2-pyrrolidin-1-ylethyl)-1,2,3,4-tetrahydroisoquinolin-6-yl]oxy}benzamide], the melting point was in the range of 235 to 236 °C. The Ki in data set [1] lay in the range of 10.1 to 25 nM. In turn, `CCNC(=O)c1ccc(Oc2ccc3c(c2)CCN(CCN2CCCC2)C3=O)cc1` [Example 93, N-ethyl-4-{[1-oxo-2-(2-pyrrolidin-1-ylethyl)-1,2,3,4-tetrahydroisoquinolin-6-yl]oxy}benzamide] returned a melting point of 215 to 216 °C. Moreover, the Ki in data set [1] was less than 10 nM. With `CC(C)NC(=O)c1ccc(Oc2ccc3c(c2)CCN(CCN2CCCC2)C3=O)cc1` [Example 94, N-isopropyl-4-{[1-oxo-2-(2-pyrrolidin-1-ylethyl)-1,2,3,4-tetrahydroisoquinolin-6-yl]oxy}benzamide], the melting point lay within 223 to 224 °C. Besides, the Ki in data set [1] is less than 10 nM. On the same counts, the results for `O=C(NC1CCC1)c1ccc(Oc2ccc3c(c2)CCN(CCN2CCCC2)C3=O)cc1` [Example 97, N-cyclobutyl-4-{[1-oxo-2-(2-pyrrolidin-1-ylethyl)-1,2,3,4-tetrahydroisoquinolin-6-yl]oxy}benzamide] are 236 to 237 °C and 10.1 to 25 nM. `O=C(NC1CC1)c1ccc(Oc2ccc3c(c2)CCN(CCN2CCCC2)C3=O)cc1` [Example 99, N-cyclopropyl-4-{[1-oxo-2-(2-pyrrolidin-1-ylethyl)-1,2,3,4-tetrahydroisoquinolin-6-yl]oxy}benzamid;e] had a melting point of 227 to 228 °C. In data set [1], the Ki was less than 10 nM. For the compound `O=C(c1ccc(-c2ccc3c(c2)CCN(CCN2CCCC2)C3=O)cc1)C1CC1` [Example 103, 6-[4-(cyclopropylcarbonyl)phenyl]-2-(2-pyrrolidin-1-ylethyl)-3,4-dihydro-isoquinolin-1(2H)-one], the melting point was in the range of 244 to 246 °C. Further, the Ki in data set [1] was less than 10 nM.

In turn, `C[C@@H]1CCCN1CCN1Cc2cc(-c3ccc(C#N)cc3)ccc2C1=O` [Example 117, (R)-4-(2-(2-(2-methylpyrrolidin-1-yl)ethyl)-1-oxoisoindolin-5-yl)benzonitrile] registered a melting point of 214 to 216 °C. In addition, the Ki in data set [1] fell in the range of 10.1 to 25 nM. Consider `C[C@@H]1CCCN1CCN1Cc2cc(-c3ccc(C(=O)N4CCCC4)cc3)ccc2C1=O` [Example 119, 2-{2-[(2R)-2-methylpyrrolidin-1-yl]ethyl}-5-[4-(pyrrolidin-1-ylcarbonyl)phenyl]-isoindolin-1-one], for which the melting point lay within 184 to 185 °C. Moreover, the Ki in data set [1] was greater than 100 nM. On to `O=C(c1ccc(-c2ccc3c(c2)CCN(CCN2CCCC2)C3=O)cc1F)N1CCCC1` [Example 133, 6-[3-fluoro-4-(pyrrolidin-1-ylcarbonyl)phenyl]-2-(2-pyrrolidin-1-ylethyl)-3,4-dihydroisoquinolin-1(2H)-one], for which the melting point is 231 to 232 °C. Also, the Ki in data set [1] was less than 10 nM. The compound `CS(=O)(=O)c1ccc(-c2ccc3c(c2)CCN(CCN2CCCC2)C3=O)cc1` [Example 135, 6-[4-(methylsulfonyl)phenyl]-2-(2-pyrrolidin-1-ylethyl)-3,4-dihydroisoquinolin-1(2H)-one] yielded a melting point of 153 to 155 °C. Also, the Ki in data set [1] was less than 10 nM. `FC(F)(F)Oc1ccc(-c2ccc3c(c2)CCN(CCN2CCCC2)C3)cc1` [Example 171, 2-(2-pyrrolidin-1-ylethyl)-6-[4-(trifluoromethoxy)phenyl]-1,2,3,4-tetrahydroisoquinoline] had a melting point greater than 230 °C. Also, the Ki in data set [1] is greater than 100 nM. For `C[C@@H]1CCCN1CCN1CCc2cc(-c3ccc(F)cc3)ccc2C1` [Example 172, 6-(4-fluorophenyl)-2-{2-[(2R)-2-methylpyrrolidin-1-yl]ethyl}-1,2,3,4-tetrahydroisoquinoline], the melting point lay within 232 to 234 °C. In addition, in data set [1], the Ki was in the range of 25.1 to 50 nM.

In turn, `Fc1cccc(-c2ccc3c(c2)CCN(CCN2CCCC2)C3)c1` [Example 173, 6-(3-fluorophenyl)-2-(2-pyrrolidin-1-ylethyl)-1,2,3,4-tetrahydroisoquinoline] returned a melting point of 272 to 274 °C. Moreover, the Ki in data set [1] was 50.1 to 100 nM. On the same counts, the results for `Fc1ccc(-c2ccc3c(c2)CCN(CCN2CCCCC2)C3)cc1` [Example 174, 6-(4-fluorophenyl)-2-(2-piperidin-1-ylethyl)-1,2,3,4-tetrahydroisoquinoline] are 272 to 274 °C and 50.1 to 100 nM. Taken in the same sequence, the figures for `Fc1ccc(-c2ccc3c(c2)CCN(CCN2CCCCCC2)C3)cc1` [Example 175, 2-(2-azepan-1-ylethyl)-6-(4-fluorophenyl)-1,2,3,4-tetrahydroisoquinoline] were 258 to 260 °C and greater than 100 nM.

The compound `c1cc2c(cc1-c1ccc3c(c1)OCO3)CCN(CCN1CCCC1)C2` [Example 176, 6-(1,3-benzodioxol-5-yl)-2-(2-pyrrolidin-1-ylethyl)-1,2,3,4-tetrahydroisoquinoline] registered a melting point of 257 to 259 °C. Moreover, in data set [1], the Ki lay within 50.1 to 100 nM. The compound `Fc1ccc(-c2ccc3c(c2)CCN(CCN2CCCC2)C3)cc1` [Example 177] registered a melting point of 250 to 251 °C. The compound `c1ccc(-c2ccc3c(c2)CCN(CCN2CCCC2)C3)cc1` [Example 178] displayed a melting point of 268 to 270 °C.
